Experimental data: US12077503B2, “Substituted cyclic amides and their use as herbicides” (FMC CORPORATION, priority 2015, dated 2024)

Key:
Assay type in all cases: in vivo
[1] = tested on: redroot pigweed (Amaranthus retroflexus); assay: Test G Post-Emergence Protocol; conditions: Amaranthus retroflexus, post-emergence, 312 h; for pest or weed control at 15.625 g/ha: 15.625 g ai/ha, evaluated after 13 days (100=total damage to plant; 0=no damage to plant), read-out: Pigweed, Redroot damage rating; for pest or weed control at 62.5 g/ha: 62.5 g ai/ha, read-out: Pigweed, Redroot damage rating (100=total damage to plant; 0=no damage to plant); for pest or weed control at 62.5 g/ha / pest or weed control at 250 g/ha: evaluated after 13 days; for pest or weed control at 250 g/ha: 250 g ai/ha, read-out: damage to plant, Pigweed, Redroot (100=total damage to plant; 0=no damage to plant)
Summary of the method: (§1)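 A glasshouse post-emergence test: 8-day-old plants sprayed at 15.625, 62.5 or 250 g/ha, then grown at 24/16 °C day/night with 14 h light and 65% humidity. Damage rated 13 days later, 0–100.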

[2] = tested on: ivy-leaved morning glory (Ipomoea hederacea); assay: Test G Post-Emergence Protocol; conditions: Ipomoea, post-emergence, 312 h; for pest or weed control at 15.625 g/ha: 15.625 g ai/ha, evaluated after 13 days (100=total damage to plant; 0=no damage to plant), read-out: Morningglory, Ivy-leaved damage rating; for pest or weed control at 62.5 g/ha: 62.5 g ai/ha, read-out: Morningglory, Ivy-leaved damage rating (100=total damage to plant; 0=no damage to plant); for pest or weed control at 62.5 g/ha / pest or weed control at 250 g/ha: evaluated after 13 days; for pest or weed control at 250 g/ha: 250 g ai/ha, read-out: damage to plant, Morningglory, Ivy-leaved (100=total damage to plant; 0=no damage to plant)
Summary of the method: as §1

[3] = tested on: barnyardgrass (Echinochloa crus-galli); assay: Test G Post-Emergence Protocol; conditions: Echinochloa crus-galli, post-emergence, 312 h; for pest or weed control at 15.625 g/ha: 15.625 g ai/ha, evaluated after 13 days (100=total damage to plant; 0=no damage to plant), read-out: Barnyardgrass damage rating; for pest or weed control at 62.5 g/ha: 62.5 g ai/ha, read-out: Barnyardgrass damage rating (100=total damage to plant; 0=no damage to plant); for pest or weed control at 62.5 g/ha / pest or weed control at 250 g/ha: evaluated after 13 days; for pest or weed control at 250 g/ha: 250 g ai/ha, read-out: damage to plant, Barnyardgrass (100=total damage to plant; 0=no damage to plant)
Summary of the method: as §1

[4] = tested on: giant foxtail (Setaria faberi); assay: Test G Post-Emergence Protocol; conditions: Setaria faberi, post-emergence, 312 h; for pest or weed control at 15.625 g/ha: 15.625 g ai/ha, evaluated after 13 days (100=total damage to plant; 0=no damage to plant), read-out: Foxtail, Giant damage rating; for pest or weed control at 62.5 g/ha: 62.5 g ai/ha, read-out: Foxtail, Giant damage rating (100=total damage to plant; 0=no damage to plant); for pest or weed control at 62.5 g/ha / pest or weed control at 250 g/ha: evaluated after 13 days; for pest or weed control at 250 g/ha: 250 g ai/ha, read-out: damage to plant, Foxtail, Giant (100=total damage to plant; 0=no damage to plant)
Summary of the method: as §1

corn (Zea mays) [5] = assay: Test G Post-Emergence Protocol; conditions: Zea mays, post-emergence, 312 h; for plant injury at 15.625 g/ha: 15.625 g ai/ha, evaluated after 13 days (100=total damage to plant; 0=no damage to plant), read-out: Corn damage rating; for plant injury at 62.5 g/ha: 62.5 g ai/ha, read-out: Corn damage rating (100=total damage to plant; 0=no damage to plant); for plant injury at 62.5 g/ha / plant injury at 250 g/ha: evaluated after 13 days; for plant injury at 250 g/ha: 250 g ai/ha, read-out: damage to plant, Corn (100=total damage to plant; 0=no damage to plant)
Summary of the method: as §1

[6] = tested on: velvetleaf (Abutilon theophrasti); assay: Test G Post-Emergence Protocol; conditions: Abutilon theophrasti, post-emergence, 312 h; for pest or weed control at 15.625 g/ha: 15.625 g ai/ha, evaluated after 13 days (100=total damage to plant; 0=no damage to plant), read-out: Velvetleaf damage rating; for pest or weed control at 62.5 g/ha: 62.5 g ai/ha, read-out: Velvetleaf damage rating (100=total damage to plant; 0=no damage to plant); for pest or weed control at 62.5 g/ha / pest or weed control at 250 g/ha: evaluated after 13 days; for pest or weed control at 250 g/ha: 250 g ai/ha, read-out: damage to plant, Velvetleaf (100=total damage to plant; 0=no damage to plant)
Summary of the method: as §1

[7] = tested on: redroot pigweed (Amaranthus retroflexus); assay: Test G Pre-Emergence Protocol; conditions: Amaranthus retroflexus, pre-emergence, 312 h, evaluated after 13 days; for pest or weed control at 15.625 g/ha: 15.625 g ai/ha; for pest or weed control at 15.625 g/ha / pest or weed control at 250 g/ha: read-out: Pigweed, Redroot damage rating (100=total damage to plant; 0=no damage to plant); for pest or weed control at 62.5 g/ha: 62.5 g ai/ha, 100=total damage to plant, 0=no damage to plant, read-out: plant damage rating, Pigweed, Redroot; for pest or weed control at 250 g/ha: 250 g ai/ha
Summary of the method: (§2)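 Test compound in 0.5% Tween 20 acetone/water (50:50) was applied at three rates (15.625, 62.5, 250 g/ha) to soil sown one day earlier. After 13 days plants were scored for injury, where 0 means unaffected and 100 means completely damaged.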

[8] = tested on: ivy-leaved morning glory (Ipomoea hederacea); assay: Test G Pre-Emergence Protocol; conditions: Ipomoea, pre-emergence, 312 h, evaluated after 13 days; for pest or weed control at 15.625 g/ha: 15.625 g ai/ha, read-out: Morning-glory, Ivy-leaved damage rating (100=total damage to plant; 0=no damage to plant); for pest or weed control at 62.5 g/ha: 62.5 g ai/ha, 100=total damage to plant, 0=no damage to plant, read-out: plant damage rating, Morningglory, Ivy-leaved; for pest or weed control at 250 g/ha: 250 g ai/ha, read-out: Morningglory, Ivy-leaved damage rating (100=total damage to plant; 0=no damage to plant)
Summary of the method: as §2

[9] = tested on: barnyardgrass (Echinochloa crus-galli); assay: Test G Pre-Emergence Protocol; conditions: Echinochloa crus-galli, pre-emergence, 312 h, evaluated after 13 days; for pest or weed control at 15.625 g/ha: 15.625 g ai/ha, read-out: Barnyard grass damage rating (100=total damage to plant; 0=no damage to plant); for pest or weed control at 62.5 g/ha: 62.5 g ai/ha, 100=total damage to plant, 0=no damage to plant, read-out: plant damage rating, Barnyardgrass; for pest or weed control at 250 g/ha: 250 g ai/ha, read-out: Barnyardgrass damage rating (100=total damage to plant; 0=no damage to plant)
Summary of the method: as §2

[10] = tested on: giant foxtail (Setaria faberi); assay: Test G Pre-Emergence Protocol; conditions: Setaria faberi, pre-emergence, 312 h, evaluated after 13 days; for pest or weed control at 15.625 g/ha: 15.625 g ai/ha; for pest or weed control at 15.625 g/ha / pest or weed control at 250 g/ha: read-out: Foxtail, Giant damage rating (100=total damage to plant; 0=no damage to plant); for pest or weed control at 62.5 g/ha: 62.5 g ai/ha, 100=total damage to plant, 0=no damage to plant, read-out: plant damage rating, Foxtail, Giant; for pest or weed control at 250 g/ha: 250 g ai/ha
Summary of the method: as §2

corn (Zea mays) [11] = assay: Test G Pre-Emergence Protocol; conditions: Zea mays, pre-emergence, 312 h, evaluated after 13 days; for plant injury at 15.625 g/ha: 15.625 g ai/ha; for plant injury at 15.625 g/ha / plant injury at 250 g/ha: read-out: Corn damage rating (100=total damage to plant; 0=no damage to plant); for plant injury at 62.5 g/ha: 62.5 g ai/ha, 100=total damage to plant, 0=no damage to plant, read-out: plant damage rating, Corn; for plant injury at 250 g/ha: 250 g ai/ha
Summary of the method: as §2

[12] = tested on: velvetleaf (Abutilon theophrasti); assay: Test G Pre-Emergence Protocol; conditions: Abutilon theophrasti, pre-emergence, 312 h, evaluated after 13 days; for pest or weed control at 15.625 g/ha: 15.625 g ai/ha; for pest or weed control at 15.625 g/ha / pest or weed control at 250 g/ha: read-out: Velvetleaf damage rating (100=total damage to plant; 0=no damage to plant); for pest or weed control at 62.5 g/ha: 62.5 g ai/ha, 100=total damage to plant, 0=no damage to plant, read-out: plant damage rating, Velvetleaf; for pest or weed control at 250 g/ha: 250 g ai/ha
Summary of the method: as §2

SMILES | pest or weed control at 15.625 g/ha [1] | pest or weed control at 62.5 g/ha [1] | pest or weed control at 250 g/ha [1] | pest or weed control at 15.625 g/ha [2] | pest or weed control at 62.5 g/ha [2] | pest or weed control at 250 g/ha [2] | pest or weed control at 15.625 g/ha [3] | pest or weed control at 62.5 g/ha [3] | pest or weed control at 250 g/ha [3] | pest or weed control at 15.625 g/ha [4] | pest or weed control at 62.5 g/ha [4] | pest or weed control at 250 g/ha [4] | plant injury at 15.625 g/ha (corn (Zea mays) [5]) | plant injury at 62.5 g/ha (corn (Zea mays) [5]) | plant injury at 250 g/ha (corn (Zea mays) [5]) | pest or weed control at 15.625 g/ha [6] | pest or weed control at 62.5 g/ha [6] | pest or weed control at 250 g/ha [6] | pest or weed control at 15.625 g/ha [7] | pest or weed control at 62.5 g/ha [7] | other results
Cc1cccnc1NC(=O)C1C(=O)N(C)CC1c1ccc(C(F)(F)F)cc1 (stereo not drawn) [Compound 1437] | 0% | 0% | 0% | 0% | 0% | 0% | 0% | 0% | 0% | 0% | 0% | 0% | 0% | 0% | 0% | 0% | 0% | 0% | 0% | 0% | pest or weed control at 250 g/ha [7]: 0%; pest or weed control at 15.625 g/ha [8]: 0%; pest or weed control at 62.5 g/ha [8]: 0%; pest or weed control at 250 g/ha [8]: 0%; pest or weed control at 15.625 g/ha [9]: 0%; pest or weed control at 62.5 g/ha [9]: 0%; pest or weed control at 250 g/ha [9]: 0%; pest or weed control at 15.625 g/ha [10]: 0%; pest or weed control at 62.5 g/ha [10]: 0%; pest or weed control at 250 g/ha [10]: 0%; plant injury at 15.625 g/ha (corn (Zea mays) [11]): 0%; plant injury at 62.5 g/ha (corn (Zea mays) [11]): 0%; plant injury at 250 g/ha (corn (Zea mays) [11]): 0%; pest or weed control at 15.625 g/ha [12]: 0%; pest or weed control at 62.5 g/ha [12]: 0%; pest or weed control at 250 g/ha [12]: 0%
CN1C[C@@H](c2ccc(C(F)(F)F)cc2)[C@H](C(=O)Nc2cccc(F)n2)C1=O [Compound 1489] | 0% | 0% | 10% | 0% | 0% | 0% | 0% | 0% | 30% | 0% | 0% | 40% | 10% | 10% | 40% | 0% | 0% | 0% | 0% | 0% | pest or weed control at 250 g/ha [7]: 100%; pest or weed control at 15.625 g/ha [8]: 0%; pest or weed control at 62.5 g/ha [8]: 0%; pest or weed control at 250 g/ha [8]: 0%; pest or weed control at 15.625 g/ha [9]: 0%; pest or weed control at 62.5 g/ha [9]: 0%; pest or weed control at 250 g/ha [9]: 0%; pest or weed control at 15.625 g/ha [10]: 0%; pest or weed control at 62.5 g/ha [10]: 0%; pest or weed control at 250 g/ha [10]: 0%; plant injury at 15.625 g/ha (corn (Zea mays) [11]): 0%; plant injury at 62.5 g/ha (corn (Zea mays) [11]): 0%; plant injury at 250 g/ha (corn (Zea mays) [11]): 0%; pest or weed control at 15.625 g/ha [12]: 0%; pest or weed control at 62.5 g/ha [12]: 0%; pest or weed control at 250 g/ha [12]: 0%
